US8945846B2, “Mutations in the LNK gene in patients with myeloproliferative neoplasms and other hematolymphoid malignancies” (The Board of Trustees of the Leland Stanford Junior …, priority 2010, dated 2015)

Columns and labels:
JAK2-STAT3/5 activation = experiment: TPO-stimulated JAK2, STAT3 and STAT5 activation by phospho-specific flow cytometry in BaF3-MPL cells; type: cell-based; conditions: BaF3-MPL cells expressing WT or mutant LNK; pre-incubated two hours with 0.2 μM to 5 μM, then TPO 10 ng/mL; FIG. 5
Experimental: FIG. 5. Activation of JAK2-STAT3/5 in BaF3-MPL cells expressing WT or mutant LNK requires JAK activity. BaF3-MPL cells expressing WT or mutant LNK were pre-incubated with DMSO or JAK inhibitor I at concentrations ranging from 0.2 μM to 5 μM for two hours prior to stimulation with TPO (10 ng/mL). JAK2, STAT3, and STAT5 activation were then measured by phospho-specific flow cytometry. Line graphs represent % maximal activation for each cell line.
BaF3-MPL cells were starved overnight in cytokine-free media and stimulated with TPO (1 or 10 ng/mL) for time points ranging from 15 minutes to 16 hours at 37° C. Peripheral blood samples were stimulated with either TPO (50 ng/ml) or G-CSF (20 ng/ml)(Peprotech, Rocky Hill, N.J.) for 15 minutes at 37° C. PBMCs were rested in RPMI with 10% FBS for one hour at 37° C. prior to cytokine stimulation. For the JAK inhibitor experiments, PBMCs were incubated with 5 μM JAK inhibitor I (EMD/Calbiochem, San Diego, Calif.) for the final 30 minutes prior to cytokine stimulation. Following cytokine stimulation, cells were fixed in paraformaldehyde (Electron Microscopy Sciences, Hatfield, Pa.). […] Cells were measured on a BD LSRII flow cytometer. […] Flow cytometry data was obtained with FACSDiva software and analyzed using FlowJo (Tree Star, Ashland, Oreg.) or Cytobank according to standard procedures. […]

[1] = system: BaF3-MPL cells expressing WT or mutant LNK; experiment: JAK inhibitor growth assay of BaF3-MPL cells grown with TPO; type: cell-based; conditions: TPO 10 ng/mL, JAK inhibitor I 0.2 μM to 5 μM, FIG. 2C
Experimental: FIG. 2. LNK mutations cause dysregulated TPO-dependent growth and JAK2-STAT3/5 activation. BaF3-MPL cells were transduced with empty vector (EV), WT LNK (WT), or mutant LNK (DEL, E208Q, R392E). […] Viable cells were counted daily by staining with propidium iodide (PI) and quantitated with TruCount beads on a LSRII flow cytometer. Error bars represent the standard deviation of two replicates per sample. In Panel B, BaF3-MPL cells were stimulated with TPO (1 ng/ml) for the durations indicated, followed by measurement of JAK2, STAT3 and STAT5 activation via phospho-specific flow cytometry. […] Vertical lines denote the MFI of EV unstimulated cells for comparison. In Panel C, BaF3-MPL cells were cultured in the presence of DMSO control or concentrations of JAK inhibitor I ranging from 0.2 μM to 5 μM. Cumulative growth at four days (normalized to maximal growth for each cell line) is shown. Error bars represent the standard deviation of two replicates per sample.
BaF3-MPL cells were kindly provided by J. Tyner/B. Druker (Oregon Health and Sciences University, Portland, Oreg.) and were maintained in RPMI medium containing 10% FBS and IL-3 (1 ng/mL) (Peprotech, Rocky Hill, N.J.). […] Viable cells were counted daily by staining with propidium iodide (PI) and quantitated with TruCount beads (BD Biosciences, San Jose, Calif.) on a LSRII flow cytometer. […]

[2] = system: STAT3/5 activation (pSTAT3+/5+ subpopulation); experiment: Cytokine-stimulated STAT3/5 activation by phospho-specific flow cytometry in patient peripheral blood immature myeloid cells; type: cell-based, human; conditions: samples from LNK DEL, E208Q, JAK2 V617F, MPL W515L patients and normal donor; 5 μM for 30 minutes, then TPO 50 ng/ml or G-CSF 20 ng/ml for 15 minutes; FIG. 3A
Experimental: FIG. 3. Identification of a cytokine-responsive pSTAT3+/pSTAT5+ population in CD34+ early progenitors from patients with LNK mutations. Peripheral blood samples from patients with the LNK DEL and E208Q mutations, as well as PMF patients with the JAK2 V617F and MPL W515L mutations, were compared with normal donor. CD3-/CD66-/CD33mid immature myeloid cells are shown in Panels A-C. In Panel A, samples were pre-incubated with either DMSO or JAK inhibitor I (5 μM) for 30 minutes, and then stimulated with either TPO (50 ng/ml) or G-CSF (20 ng/ml) for 15 minutes, prior to assessment of STAT3 and STAT5 activation by phospho-specific flow cytometry. […] For Panels A and B, numbers depicted in each quadrant represent the percentage of total cells present in each quadrant gate. […] DNA was isolated from each subset, and allele-specific quantitative PCR for the DEL mutation was performed. […]
BaF3-MPL cells were starved overnight in cytokine-free media and stimulated with TPO (1 or 10 ng/mL) for time points ranging from 15 minutes to 16 hours at 37° C. […] Cells were measured on a BD LSRII flow cytometer. […] Flow cytometry data was obtained with FACSDiva software and analyzed using FlowJo (Tree Star, Ashland, Oreg.) or Cytobank according to standard procedures. […]

JAK inhibitor I
Inhibition of JAK2-STAT3/5 activation (JAK2-STAT3/5 activation): effectively inhibited
TPO-dependent growth (cumulative growth at four days) [1]: remained susceptible to JAK inhibition
Effect on cytokine-responsive pSTAT3+/5+ subpopulation [2]: completely eradicated
